Source: ChEMBL document CHEMBL5352412, “Discovery of 1,2-diphenylethene derivatives as human DNA topoisomerase II catalytic inhibitors and antitumor agents” (Eur J Med Chem, 2022)
Several values for one entry are separate records, joined by “and”; a condition that tells them apart may be missing. Identical values can stand only once. Activity calls are given as the source filed them. No cut-off for these calls is given here.

Tests used:
[1] = biological target: T1, DNA topoisomerase 2-alpha (Homo sapiens, UniProt P11388); test: Inhibition of human topoisomerase 2-alpha using pBR322 DNA as substrate incubated for 30 mins in presence of 0.5 to 5 mM ATP (reference value: 2.9 microM)
MDA-MB-231 = test: Antiproliferative activity against human MDA-MB-231 cells incubated for 72 hrs by CCK8 assay; format: functional, cell-based
HepG2 [2] = test: Antiproliferative activity against human HepG2 cells incubated for 72 hrs by CCK8 assay; format: functional, cell-based
[3] = biological target: T1, DNA topoisomerase 2-alpha; test: Inhibition of human topoisomerase 2-alpha assessed as reduction in relaxation of pBR322 DNA at 100 uM measured after 30 mins by agarose gel electrophoresis method relative to control
[4] = biological target: T1, DNA topoisomerase 2-alpha; test: Inhibition of human topoisomerase 2-alpha assessed as reduction in relaxation of pBR322 DNA at 25 uM measured after 30 mins by agarose gel electrophoresis method relative to control
HeLa = test: Antiproliferative activity against human HeLa cells incubated for 72 hrs by CCK8 assay; format: functional, cell-based
HCT-116 = test: Antiproliferative activity against human HCT-116 cells incubated for 72 hrs by CCK8 assay; format: functional, cell-based; conditions: HCT-116, 72 h
PC-3 = test: Antiproliferative activity against human PC-3 cells incubated for 72 hrs by CCK8 assay; format: functional, cell-based; conditions: PC-3, 72 h
[5] = Antiproliferative activity against human CCL-226 cells incubated for 72 hrs by CCK8 assay; format: toxicity, cell-based
[6] = Antiproliferative activity against human BEAS-2B cells incubated for 72 hrs by CCK8 assay; format: toxicity, cell-based
[7] = Antiproliferative activity against human HL7702 cells incubated for 72 hrs by CCK8 assay; format: toxicity, cell-based; conditions: HL7702 (L02) cells
Homo sapiens [8] = species on record: Homo sapiens; test: Selectivity index, ratio of IC50 for human CCL-226 cells to IC50 for human HeLa cells
Homo sapiens [9] = species on record: Homo sapiens; test: Selectivity index, ratio of IC50 for human CCL-226 cells to IC50 for human HCT-116 cells
Homo sapiens [10] = species on record: Homo sapiens; test: Selectivity index, ratio of IC50 for human CCL-226 cells to IC50 for human PC-3 cells
Homo sapiens [11] = species on record: Homo sapiens; test: Selectivity index, ratio of IC50 for human CCL-226 cells to IC50 for human MDA-MB-231 cells
Homo sapiens [12] = species on record: Homo sapiens; test: Selectivity index, ratio of IC50 for human CCL-226 cells to IC50 for human HepG2 cells
Homo sapiens [13] = species on record: Homo sapiens; test: Selectivity index, ratio of IC50 for human CCL-226 cells to IC50 for human A549 cells
[14] = Selectivity index, ratio of IC50 for human BEAS-2B cells to IC50 for human HeLa cells; format: toxicity; conditions: BEAS-2B cells versus HeLa cells, read-out: Ratio IC50
[15] = Selectivity index, ratio of IC50 for human BEAS-2B cells to IC50 for human HCT-116 cells; format: toxicity; conditions: BEAS-2B cells versus HCT-116 cells, read-out: Ratio IC50
[16] = Selectivity index, ratio of IC50 for human BEAS-2B cells to IC50 for human PC-3 cells; format: toxicity; conditions: BEAS-2B cells versus PC-3 cells, read-out: Ratio IC50
[17] = Selectivity index, ratio of IC50 for human BEAS-2B cells to IC50 for human MDA-MB-231 cells; format: toxicity; conditions: BEAS-2B cells versus MDA-MB-231 cells, read-out: Ratio IC50
[18] = Selectivity index, ratio of IC50 for human BEAS-2B cells to IC50 for human HepG2 cells; format: toxicity; conditions: BEAS-2B cells versus HepG2 cells, read-out: Ratio IC50
[19] = Selectivity index, ratio of IC50 for human BEAS-2B cells to IC50 for human A549 cells; format: toxicity; conditions: BEAS-2B cells versus A549 cells, read-out: Ratio IC50
[20] = Selectivity index, ratio of IC50 for human HL-7702 cells to IC50 for human HeLa cells; format: toxicity; conditions: HL-7702 cells versus HeLa cells, read-out: Ratio IC50
[21] = Selectivity index, ratio of IC50 for human HL-7702 cells to IC50 for human HCT-116 cells; format: toxicity; conditions: HL-7702 cells versus HCT-116 cells, read-out: Ratio IC50
[22] = Selectivity index, ratio of IC50 for human HL-7702 cells to IC50 for human PC-3 cells; format: toxicity; conditions: HL-7702 cells versus PC-3 cells, read-out: Ratio IC50
[23] = Selectivity index, ratio of IC50 for human HL-7702 cells to IC50 for human MDA-MB-231 cells; format: toxicity; conditions: HL-7702 cells versus MDA-MB-231 cells, read-out: Ratio IC50
[24] = Selectivity index, ratio of IC50 for human HL-7702 cells to IC50 for human HepG2 cells; format: toxicity; conditions: HL-7702 cells versus HepG2 cells, read-out: Ratio IC50
[25] = Selectivity index, ratio of IC50 for human HL-7702 cells to IC50 for human A549 cells; format: toxicity; conditions: HL-7702 cells versus A549 cells, read-out: Ratio IC50
[26] = biological target: T1, DNA topoisomerase 2-alpha; test: Inhibition of human topoisomerase 2-alpha assessed as DNA intercalation at 100 to 200 uM using pBR322 DNA as substrate measured after 30 mins by agarose gel electrophoresis analysis; conditions: dose 100-200 µM
A549 = test: Antiproliferative activity against human A549 cells incubated for 72 hrs by CCK8 assay; format: functional, cell-based; conditions: A549, 72 h
[27] = biological target: T1, DNA topoisomerase 2-alpha; test: Poison activity at human topoisomerase 2-alpha assessed as linear DNA formation at 100 to 200 microM; conditions: dose 100-200 µM
HepG2 [28] = test: Upregulation of gamma-H2AX level in human HepG2 cells incubated for 4 hrs by Western blotting analysis; format: functional, cell-based
[29] = biological target: T1, DNA topoisomerase 2-alpha; test: Inhibition of human topoisomerase 2-alpha using pBR322 DNA as substrate incubated for 1 hr in presence of ATP by malachite green phosphate method
[30] = biological target: T1, DNA topoisomerase 2-alpha; test: Inhibition of human topoisomerase 2-alpha assessed as reduction in relaxation of pBR322 DNA measured after 30 mins by agarose gel electrophoresis method
DNA topoisomerase 2-beta = DNA topoisomerase 2-beta (Homo sapiens, UniProt Q02880); test: Inhibition of human topoisomerase 2-beta assessed as reduction in relaxation of pBR322 DNA measured after 30 mins by agarose gel electrophoresis method
HepG2 [31] = test: Induction of cell cycle arrest in human HepG2 cells assessed as accumulation of cells at G1 phase at 1 uM incubated for 24 hrs by PI staining based flow cytometry analysis (reference value: 54%); format: functional
HepG2 [32] = test: Induction of cell cycle arrest in human HepG2 cells assessed as accumulation of cells at S phase at 1 uM incubated for 24 hrs by PI staining based flow cytometry analysis (reference value: 28.2%); format: functional
HepG2 [33] = test: Induction of cell cycle arrest in human HepG2 cells assessed as accumulation of cells at G2/M phase at 1 uM incubated for 24 hrs by PI staining based flow cytometry analysis (reference value: 17.5%); format: functional
[34] = Toxicity in C57BL/6J mouse assessed as change in body weight at 500 mg/kg administered via gavage twice at day 1 and measured for 7 days; format: organism-based; conditions: in vivo, po, 168 h, time 7 day
[35] = Toxicity in C57BL/6J mouse assessed as animal death at 500 mg/kg administered via gavage twice at day 1 and measured for 7 days; format: organism-based; conditions: in vivo, po, time 7 day, read-out: Activity
HepG2 [36] = test: Induction of apoptosis in human HepG2 cells assessed as viable cells at 5 uM incubated for 24 hrs by annexin-V FITC and PI staining based flow cytometry analysis (reference value: 93.8%); format: functional; conditions: read-out: Activity
HepG2 [37] = test: Induction of apoptosis in human HepG2 cells assessed as early apoptotic cells at 5 uM incubated for 24 hrs by annexin-V FITC and PI staining based flow cytometry analysis (reference value: 3.7%); format: functional
HepG2 [38] = test: Induction of apoptosis in human HepG2 cells assessed as late apoptotic cells at 5 uM incubated for 24 hrs by annexin-V FITC and PI staining based flow cytometry analysis (reference value: 2.3%); format: functional
HepG2 [39] = test: Induction of apoptosis in human HepG2 cells assessed as necrotic cells at 5 uM incubated for 24 hrs by annexin-V FITC and PI staining based flow cytometry analysis (reference value: 0.2%); format: functional

T1 sequence (P11388 whole entry): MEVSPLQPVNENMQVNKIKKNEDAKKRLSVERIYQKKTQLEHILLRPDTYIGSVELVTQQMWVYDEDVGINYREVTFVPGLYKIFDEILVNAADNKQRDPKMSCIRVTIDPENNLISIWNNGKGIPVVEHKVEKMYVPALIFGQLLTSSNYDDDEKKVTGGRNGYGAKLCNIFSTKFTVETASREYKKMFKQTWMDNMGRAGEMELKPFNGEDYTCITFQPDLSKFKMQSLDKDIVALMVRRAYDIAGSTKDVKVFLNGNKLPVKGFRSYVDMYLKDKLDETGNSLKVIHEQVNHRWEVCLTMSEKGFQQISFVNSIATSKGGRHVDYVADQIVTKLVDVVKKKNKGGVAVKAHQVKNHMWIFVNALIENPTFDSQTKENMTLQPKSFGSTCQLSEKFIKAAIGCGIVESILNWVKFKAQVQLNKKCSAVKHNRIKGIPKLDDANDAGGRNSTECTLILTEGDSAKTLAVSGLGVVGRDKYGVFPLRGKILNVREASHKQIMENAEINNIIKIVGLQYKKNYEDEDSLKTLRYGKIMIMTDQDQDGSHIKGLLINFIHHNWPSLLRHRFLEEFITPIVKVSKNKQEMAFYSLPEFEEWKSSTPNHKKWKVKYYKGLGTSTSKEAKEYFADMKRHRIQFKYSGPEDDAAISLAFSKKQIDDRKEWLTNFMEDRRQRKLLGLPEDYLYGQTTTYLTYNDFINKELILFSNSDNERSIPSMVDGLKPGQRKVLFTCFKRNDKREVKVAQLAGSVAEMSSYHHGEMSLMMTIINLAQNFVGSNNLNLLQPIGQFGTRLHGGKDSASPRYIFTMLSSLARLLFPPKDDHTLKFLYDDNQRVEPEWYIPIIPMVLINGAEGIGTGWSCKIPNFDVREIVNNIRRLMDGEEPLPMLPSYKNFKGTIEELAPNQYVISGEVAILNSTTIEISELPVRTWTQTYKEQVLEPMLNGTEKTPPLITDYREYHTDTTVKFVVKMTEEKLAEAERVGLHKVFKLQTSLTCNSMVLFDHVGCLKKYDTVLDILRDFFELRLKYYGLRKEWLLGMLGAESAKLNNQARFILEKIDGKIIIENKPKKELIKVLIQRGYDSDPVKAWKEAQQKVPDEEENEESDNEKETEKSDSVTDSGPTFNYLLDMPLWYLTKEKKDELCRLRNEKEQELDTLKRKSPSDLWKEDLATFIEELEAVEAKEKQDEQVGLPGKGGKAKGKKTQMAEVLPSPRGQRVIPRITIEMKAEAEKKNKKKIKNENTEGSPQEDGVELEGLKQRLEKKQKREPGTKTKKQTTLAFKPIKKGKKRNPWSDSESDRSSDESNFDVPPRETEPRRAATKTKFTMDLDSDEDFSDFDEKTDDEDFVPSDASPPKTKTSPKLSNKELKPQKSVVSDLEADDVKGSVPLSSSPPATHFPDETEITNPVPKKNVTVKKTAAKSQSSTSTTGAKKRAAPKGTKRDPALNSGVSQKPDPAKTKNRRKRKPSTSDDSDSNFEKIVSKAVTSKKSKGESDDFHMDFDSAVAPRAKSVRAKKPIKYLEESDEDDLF
Sequence of DNA topoisomerase 2-beta (Q02880 whole entry): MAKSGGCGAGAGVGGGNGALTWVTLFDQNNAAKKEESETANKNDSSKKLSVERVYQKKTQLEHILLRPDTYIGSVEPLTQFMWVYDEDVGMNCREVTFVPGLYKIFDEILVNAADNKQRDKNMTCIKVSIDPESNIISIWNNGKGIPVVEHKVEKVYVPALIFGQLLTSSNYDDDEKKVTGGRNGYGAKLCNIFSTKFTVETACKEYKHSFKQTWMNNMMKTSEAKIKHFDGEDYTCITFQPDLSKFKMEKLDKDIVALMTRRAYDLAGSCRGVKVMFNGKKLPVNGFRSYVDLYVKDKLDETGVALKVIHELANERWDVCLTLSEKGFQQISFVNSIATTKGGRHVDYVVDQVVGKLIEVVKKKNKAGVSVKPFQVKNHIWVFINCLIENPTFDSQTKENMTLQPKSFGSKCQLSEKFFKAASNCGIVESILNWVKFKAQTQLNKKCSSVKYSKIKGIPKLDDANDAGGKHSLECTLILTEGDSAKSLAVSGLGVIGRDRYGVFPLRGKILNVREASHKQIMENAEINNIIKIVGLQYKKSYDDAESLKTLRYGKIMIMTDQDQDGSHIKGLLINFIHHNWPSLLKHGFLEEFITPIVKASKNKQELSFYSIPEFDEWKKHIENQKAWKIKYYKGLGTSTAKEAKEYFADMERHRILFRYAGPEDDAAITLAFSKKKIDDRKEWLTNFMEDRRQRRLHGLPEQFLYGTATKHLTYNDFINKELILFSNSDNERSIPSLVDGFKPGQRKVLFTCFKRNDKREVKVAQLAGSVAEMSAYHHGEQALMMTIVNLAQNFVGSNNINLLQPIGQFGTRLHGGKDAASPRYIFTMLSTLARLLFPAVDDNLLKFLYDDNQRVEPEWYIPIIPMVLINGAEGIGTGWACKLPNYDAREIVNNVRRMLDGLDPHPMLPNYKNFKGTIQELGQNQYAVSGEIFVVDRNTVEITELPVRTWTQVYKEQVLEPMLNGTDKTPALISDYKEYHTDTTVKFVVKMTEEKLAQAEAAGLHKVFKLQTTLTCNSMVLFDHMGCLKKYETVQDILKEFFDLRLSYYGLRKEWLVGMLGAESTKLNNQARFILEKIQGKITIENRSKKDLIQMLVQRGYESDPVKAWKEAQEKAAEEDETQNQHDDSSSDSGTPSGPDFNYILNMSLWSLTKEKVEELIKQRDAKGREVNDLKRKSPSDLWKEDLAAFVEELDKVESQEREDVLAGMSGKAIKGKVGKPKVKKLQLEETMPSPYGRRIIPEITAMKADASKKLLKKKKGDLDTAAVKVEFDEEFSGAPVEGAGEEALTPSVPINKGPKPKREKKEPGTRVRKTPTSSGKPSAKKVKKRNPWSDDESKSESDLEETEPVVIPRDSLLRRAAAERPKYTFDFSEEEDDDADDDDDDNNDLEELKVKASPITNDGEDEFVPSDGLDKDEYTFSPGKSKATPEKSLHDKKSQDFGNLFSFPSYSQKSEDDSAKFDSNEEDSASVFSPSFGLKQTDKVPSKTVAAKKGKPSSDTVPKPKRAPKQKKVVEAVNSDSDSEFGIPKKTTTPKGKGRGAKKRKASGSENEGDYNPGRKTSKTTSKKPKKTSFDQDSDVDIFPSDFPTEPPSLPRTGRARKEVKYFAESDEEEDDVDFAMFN

Row | SMILES | IC50 (MDA-MB-231; Homo sapiens, MDA-MB-231, 72 h) | IC50 (HepG2 [2]; Homo sapiens, HepG2, 72 h) | inhibition [3] | inhibition [4] | IC50 (HeLa) | IC50 (HCT-116) | IC50 (PC-3) | IC50 at 72 h [5] | IC50 at 72 h [6] | IC50 at 72 h [7] | Ratio IC50 (Homo sapiens [8]) | Ratio IC50 (Homo sapiens [9]) | Ratio IC50 (Homo sapiens [10]) | Ratio IC50 (Homo sapiens [11]) | Ratio IC50 (Homo sapiens [12]) | Ratio IC50 (Homo sapiens [13]) | selectivity ratio [14] | selectivity ratio [15] | selectivity ratio [16] | IC50 (A549) | further results
1 | O=C(/C=C/c1ccccc1)Nc1ccc(-c2ccc3cc(O)ccc3c2)cc1 | 0.8 µM | 0.7 µM | 81% | 86.2% | 0.5 µM | 0.6 µM | 0.9 µM | > 50 µM | 26.9 µM | > 50 µM | > 28.1 | > 28.1 | > 28.1 | > 28.1 | > 28.1 | > 28.1 | > 28.1 | > 28.1 | > 28.1 | 1 µM | IC50 [1]: 8.6 µM; selectivity ratio [17]: > 28.1; selectivity ratio [18]: > 28.1; selectivity ratio [19]: > 28.1; selectivity ratio [20]: > 28.1; selectivity ratio [21]: > 28.1; selectivity ratio [22]: > 28.1; selectivity ratio [23]: > 28.1; selectivity ratio [24]: > 28.1; selectivity ratio [25]: > 28.1; inhibition [26]: inactive; Activity [27]: inactive; Activity (HepG2 [28]): inactive; inhibition [29]: Dose-Dependent Effect; IC50 [30]: 3.3 µM; IC50 (DNA topoisomerase 2-beta): 17.2 µM
2 | O=C(/C=C/c1ccccc1)Nc1ccc(/C=C/c2cc(O)cc(O)c2)cc1 | 4.1 µM | 2.4 µM | 82.6% and 76.1% | 71.2% and 61.6% | 1.9 µM | 2.1 µM | 2.3 µM | > 50 µM | > 50 µM | 37.8 µM | > 9.2 | > 9.2 | > 9.2 | > 9.2 | > 9.2 | > 9.2 | > 9.2 | > 9.2 | > 9.2 | 4.1 µM | IC50 (MDA-MB-231; mda-mb-231): 3.6 µM; IC50 (HepG2 [2]; hepg2): 2.9 µM; selectivity ratio [17]: > 9.2; selectivity ratio [18]: > 9.2; selectivity ratio [19]: > 9.2; selectivity ratio [20]: > 9.2; selectivity ratio [21]: > 9.2; selectivity ratio [22]: > 9.2; selectivity ratio [23]: > 9.2; selectivity ratio [24]: > 9.2; selectivity ratio [25]: > 9.2; IC50 [30]: 16.6 µM; IC50 (DNA topoisomerase 2-beta): 195 µM
3 | COc1cc([C@@H]2c3cc4c(cc3[C@@H](O[C@@H]3O[C@@H]5CO[C@@H](C)O[C@H]5[C@H](O)[C@H]3O)[C@H]3COC(=O)[C@H]23)OCO4)cc(OC)c1O [ETOPOSIDE] | 5.6 µM | 8.1 µM | 43.3% | – | 1.5 µM | 2.4 µM | 3 µM | 20.8 µM | 21 µM | 39.1 µM | – | – | – | – | – | – | – | – | – | 15.1 µM | inhibition [26]: inactive; Activity ([27]; filed as activator): Active; Activity (HepG2 [28]): Active; Activity (HepG2 [31]): 1.1%; Activity (HepG2 [32]): 73.7%; Activity (HepG2 [33]): 25.2%; Activity [34]: Toxic; mortality at 168 h [35]: 33.3%; viability at 5 µM (HepG2 [36]): 76.9%; Activity (HepG2 [37]): 10.7%; Activity (HepG2 [38]): 11.8%; Activity (HepG2 [39]): 0.6%
